Assay results as given in patent publication US20250295732A1, “COMPOSITIONS AND METHODS FOR ACTIVATING INNATE IMMUNITY” (Zoetis Services LLC, priority 2021, published 2025).

Columns and labels:
Format in all cases: cell-based
[1] = system: bovine monocyte-derived macrophages; assay: LPS-induced cytokine response of CATH2-trained monocyte-derived macrophages (U-Plex MSD); conditions: CATH2 24 hr, removal, 3-day rest, LPS 1 μg/mL 24 hours; vs vehicle
From the text: (§1) Peripheral blood mononuclear cells (PBMC) were isolated from bovine blood using ficoll gradients. Bovine monocytes were isolated from PBMC using magnetic assisted cell sorting to positively select for CD14+ cells using anti-human CD14 microbeads (Miltenyi Biotec). Purified bovine blood CD14+ monocytes were differentiated into macrophages using an M2-skewing differentiation factor (recombinant bovine M-CSF) over 7 days then exposed to CATH2 or a vehicle control in the presence of bovine casein to mimic aspects of the mammary gland for 24 hr. […] Following the rest period, a subset of vehicle- and CATH2-trained monocyte-derived macrophages were assessed for epigenetic and transcriptomic changes. The remaining cells were challenged with LPS or E. coli bioparticle labeled with pH-sensitive pHrodo green dye and key parameters for macrophage activation/immune response were assessed including glycolytic activity, surface marker expression, gene expression, cytokine production, phagocytosis, reactive nitrogen species production, and miRNA profiling.
Cytokine levels in cell culture supernatant (IL-8/CXCL8, IL-6, TNFα, IL-1β, IL-10, IL-12p40) were quantified using customized U-Plex assays (MesoScale Diagnostics, LLC). […] Raw data were analyzed using MSD DISCOVERY BENCHWORK.

[2] = system: bovine monocyte-derived macrophages; assay: H3 histone modification quantification (ELISA); conditions: vs vehicle
From the text: as §1
Histones were isolated from bovine monocyte-derived macrophages using commercially available histone extraction kits (Epigentek) according to the manufacturer's instructions and stored at −80° C. until histone quantification assays could be performed. […]

[3] = system: bovine monocyte-derived macrophages; assay: Reactive nitrogen species (nitrite, Griess Reagent System); conditions: E. coli bioparticles 10 μg/mL 24 hours after CATH2 24 hr and 3-day rest; vs vehicle
From the text: as §1, with “profiling. Nitrite, a primary breakdown product of nitric oxide, in cell culture supernatant were quantified using Griess Reagent System (Promega) according to manufacturer's instructions.” for “profiling.”

With “RFGRFLRKIRRFRPKVTITIQGSARFG [CATH2, cathelicidin 2 peptide]” the “LPS-induced cytokine production (IL-12p40, IL-6, TNFα, IL-8, IL-1β, IL-10)” value [1] was “enhanced production of both pro- and anti-inflammatory cytokines/chemokines”, the “H3 histone modifications (incl. H3K27ac, H3K4me1)” value ([2]; after CATH2 exposure and rest period, pre-LPS) was “increased levels of various H3 histone modifications” and the “H3 histone modifications following LPS challenge” value ([2]; after CATH2 exposure, rest, LPS 1 μg/mL 24 hr) was “some modifications are retained to a lesser extent”. For the same sequence, the “RNS (nitrite) response to E. coli bioparticle challenge” value [3] was “enhanced production of nitrogen oxide species/reactive nitrogen species (RNS) responses”.
